Assay results as given in US20250101436A1, “APTAMERS AND SMALL MOLECULE LIGANDS” (MeiraGTx UK II Limited, priority 2021, published 2025).

System: N5-12G6 riboswitch
Experiment: Firefly luciferase assay, N5-12G6 riboswitch in HEK293 cells
Details: 12G6 riboswitch, HEK293

Compound	regulation of luciferase expression (FIG. 4e)
c1cc(N2CCCNCC2)c(NCc2ccc3nccnc3c2)cn1 [compound 014, 4-(1,4-Diazepan-1-yl)-N-(quinoxalin-6-ylmethyl)pyridin-3-amine]	regulate expression in a dose-dependent fashion

Same assay, conditions: Homo sapiens, HEK293, read-out: Fold induction 2 μM (HEK), 12G6 riboswitch, luciferase, HEK293, 2 μM

Compound	fold induction at 2 µM
Cc1cncc(NCc2ccc3nccnc3c2)c1OC1CNC1 [compound 113, 4-(azetidin-3-yloxy)-5-methyl-N-(quinoxalin-6-ylmethyl)pyridin-3-amine]	31.9
Cc1cncc(NCc2cc(F)c3nccnc3c2)c1N1CCNCC1 [compound 084, N-((8-fluoroquinoxalin-6-yl)methyl)-5-methyl-4-(piperazin-1-yl)pyridin-3-amine]	66.4
Clc1cncc(NCc2ccc3nccnc3c2)c1OC1CNC1 [compound 027, 4-(Azetidin-3-yloxy)-5-chloro-N-(quinoxalin-6-ylmethyl)pyridin-3-amine]	49.4
Fc1nccc(N2CCNCC2)c1NCc1ccc2nccnc2c1 [compound 051, 2-fluoro-4-(piperazin-1-yl)-N-(quinoxalin-6-ylmethyl)pyridin-3-amine]	2.7
Clc1cc2nccnc2cc1CNc1cnccc1N1CC2CNCC2C1 (centres unmarked) [compound 099, N-((7-chloroquinoxalin-6-yl)methyl)-4-(hexahydropyrrolo[3,4-c]pyrrol-2(1H)-yl)pyridin-3-amine]	8.2
C[C@@H]1CNCCN1c1ccncc1NCc1cc(Cl)c2nccnc2c1 [compound 066, (R)—N-((8-chloroquinoxalin-6-yl)methyl)-4-(2-methylpiperazin-1-yl)pyridin-3-amine]	2
Fc1cc(CNc2cnccc2OC2CNC2)cc2nccnc12 [compound 028, 4-(Azetidin-3-yloxy)-N-((8-fluoroquinoxalin-6-yl)methyl)pyridin-3-amine]	33
Clc1cc2nccnc2cc1CNc1cnccc1N1C[C@H]2C[C@@H]1CN2 [compound 098, 4-((1R,4R)-2,5-diazabicyclo[2.2.1]heptan-2-yl)-N-((7-chloroquinoxalin-6-yl)methyl)pyridin-3-amine]	4.5
c1ccc2c(N3CCNCC3)c(NCc3ccc4nccnc4c3)cnc2c1 [compound 115, 4-(piperazin-1-yl)-N-(quinoxalin-6-ylmethyl)quinolin-3-amine]	79
FC(F)c1cncc(NCc2ccc3nccnc3c2)c1N1CCNCC1 [compound 076, 5-(difluoromethyl)-4-(piperazin-1-yl)-N-(quinoxalin-6-ylmethyl)pyridin-3-amine]	117
Fc1cc2nccnc2cc1CNc1cncc(Cl)c1N1CCNCC1 [compound 052, 5-chloro-N-((7-fluoroquinoxalin-6-yl)methyl)-4-(piperazin-1-yl)pyridin-3-amine]	18.9
C[C@@H]1CN(c2ccncc2NCc2cc(F)c3nccnc3c2)CCN1 [compound 060, (R)—N-((8-fluoroquinoxalin-6-yl)methyl)-4-(3-methylpiperazin-1-yl)pyridin-3-amine]	1.7
C[C@@H]1CNCCN1c1ccncc1NCc1cc2nccnc2cc1Cl [compound 062, (R)—N-((7-chloroquinoxalin-6-yl)methyl)-4-(2-methylpiperazin-1-yl)pyridin-3-amine]	8
FC(F)(F)c1cc(CNc2cnccc2O[C@@H]2CCNC2)cc2nccnc12 [compound 124, (R)-4-(pyrrolidin-3-yloxy)-N-((8-(trifluoromethyl)quinoxalin-6-yl)methyl)pyridin-3-amine]	3
FC(F)(F)c1cc(N2CCNCC2)c(NCc2ccc3nccnc3c2)cn1 [compound 117, 4-(piperazin-1-yl)-N-(quinoxalin-6-ylmethyl)-6-(trifluoromethyl)pyridin-3-amine]	30.6
Fc1cc(CNc2cnccc2N2CCCNCC2)cc2nccnc12 [compound 088, 4-(1,4-diazepan-1-yl)-N-((8-fluoroquinoxalin-6-yl)methyl)pyridin-3-amine]	2.6
Fc1cncc(NCc2cc(F)c3nccnc3c2)c1N1CCNCC1 [compound 080, 5-fluoro-N-((8-fluoroquinoxalin-6-yl)methyl)-4-(piperazin-1-yl)pyridin-3-amine]	31.2

Compound	fold induction at 2 µM
Cc1c(CNc2cnccc2N2CCNCC2)cc2nccnc2c1C [compound 070, N-((7,8-dimethylquinoxalin-6-yl)methyl)-4-(piperazin-1-yl)pyridin-3-amine]	2.9
Fc1cc(N2CCNCC2)c(NCc2ccc3nccnc3c2)cn1 [compound 024, 6-Fluoro-4-(piperazin-1-yl)-N-(quinoxalin-6-ylmethyl)pyridin-3-amine]	35.1
Cc1cc(CNc2cnccc2N2CCNCC2)cc2nccnc12 [compound 068, N-((8-methylquinoxalin-6-yl)methyl)-4-(piperazin-1-yl)pyridin-3-amine]	4.4
C[C@H]1CN(c2c(Cl)cncc2NCc2ccc3nccnc3c2)CCN1 [compound 025, (S)-5-Chloro-4-(3-methylpiperazin-1-yl)-N-(quinoxalin-6-ylmethyl)pyridin-3-amine]	42.6
CN(C)CCOc1ccncc1NCc1ccc2nccnc2c1 [compound 047, 4-(2-(dimethylamino)ethoxy)-N-(quinoxalin-6-ylmethyl)pyridin-3-amine]	2.7
C[C@H]1CN(c2ccncc2NCc2cc(F)c3nccnc3c2)CCN1 [compound 059, (S)—N-((8-fluoroquinoxalin-6-yl)methyl)-4-(3-methylpiperazin-1-yl)pyridin-3-amine]	15.8
Cc1cc(CNc2cnccc2O[C@@H]2CCNC2)cc2nccnc12 [compound 122, (R)—N-((8-methylquinoxalin-6-yl)methyl)-4-(pyrrolidin-3-yloxy)pyridin-3-amine]	35.8
Cc1cncc(NCc2cc(Cl)c3nccnc3c2)c1N1CCNCC1 [compound 085, N-((8-chloroquinoxalin-6-yl)methyl)-5-methyl-4-(piperazin-1-yl)pyridin-3-amine]	5.4
Clc1cc2nccnc2cc1CNc1cncc(Cl)c1O[C@@H]1CCNC1 [compound 121, (R)-5-chloro-N-((7-chloroquinoxalin-6-yl)methyl)-4-(pyrrolidin-3-yloxy)pyridin-3-amine]	28.2
Fc1cncc(NCc2ccc3nccnc3c2)c1N1CCCNCC1 [compound 092, 4-(1,4-diazepan-1-yl)-5-fluoro-N-(quinoxalin-6-ylmethyl)pyridin-3-amine]	34.9
Fc1c(CNc2cnccc2N2CCNCC2)ccc2nccnc12 [compound 067, N-((5-fluoroquinoxalin-6-yl)methyl)-4-(piperazin-1-yl)pyridin-3-amine]	3.4
Fc1cncc(NCc2cc3nccnc3cc2Cl)c1N1CCNCC1 [compound 083, N-((7-chloroquinoxalin-6-yl)methyl)-5-fluoro-4-(piperazin-1-yl)pyridin-3-amine]	12.8
C[C@H]1CN(c2ccncc2NCc2cc3nccnc3cc2Cl)CCN1 [compound 057, (S)—N-((7-chloroquinoxalin-6-yl)methyl)-4-(3-methylpiperazin-1-yl)pyridin-3-amine]	22.3
C[C@H]1CNCCN1c1c(Cl)cncc1NCc1ccc2nccnc2c1 [compound 061, (S)-5-chloro-4-(2-methylpiperazin-1-yl)-N-(quinoxalin-6-ylmethyl)pyridin-3-amine]	6
C[C@@H]1CNCCN1c1ccncc1NCc1ccc2nccnc2c1 [compound 020, (R)-4-(2-Methylpiperazin-1-yl)-N-(quinoxalin-6-ylmethyl)pyridin-3-amine]	31.2
Cc1cc2nccnc2cc1CNc1cnccc1O[C@@H]1CCNC1 [compound 123, (R)—N-((7-methylquinoxalin-6-yl)methyl)-4-(pyrrolidin-3-yloxy)pyridin-3-amine]	83.9
Fc1cncc(NCc2cc3nccnc3cc2Cl)c1N1CCCNCC1 [compound 096, N-((7-chloroquinoxalin-6-yl)methyl)-4-(1,4-diazepan-1-yl)-5-fluoropyridin-3-amine]	16.2

Same assay, conditions: Homo sapiens, HEK293, read-out: Fold induction 3.3 μM (HEK), 12G6 riboswitch, luciferase, HEK293, 3.3 μM

Compound	fold induction at 3.3 µM
C[C@H]1CNCCN1c1ccncc1NCc1ccc2nccnc2c1 [compound 041, (S)-4-(2-methylpiperazin-1-yl)-N-(quinoxalin-6-ylmethyl)pyridin-3-amine]	5
c1cc(O[C@H]2CCNC2)c(NCc2ccc3nccnc3c2)cn1 [compound 044, (S)-4-(pyrrolidin-3-yloxy)-N-(quinoxalin-6-ylmethyl)pyridin-3-amine]	22
C[C@@H]1CNCCN1c1ccncc1NCc1ccc2nccnc2c1 [compound 020, (R)-4-(2-Methylpiperazin-1-yl)-N-(quinoxalin-6-ylmethyl)pyridin-3-amine]	52

Same assay, conditions: Homo sapiens, HEK293, read-out: Fold induction 25 μM (HEK), 12G6 riboswitch, luciferase, HEK293, 25 μM

Compound	fold induction at 25 µM
CN(c1ccncc1NCc1ccc2nccnc2c1)C1CCNC1 (centres unmarked) [compound 035, N^4-methyl-N^4-(pyrrolidin-3-yl)-N^3-(quinoxalin-6-ylmethyl)pyridine-3,4-diamine]	86.4
c1cc(N2CCCNCC2)c(NCc2ccc3nccnc3c2)cn1 [compound 014, 4-(1,4-Diazepan-1-yl)-N-(quinoxalin-6-ylmethyl)pyridin-3-amine]	251
FC(F)(F)C1CN(c2ccncc2NCc2ccc3nccnc3c2)CCN1 (centres unmarked) [compound 036, N-(quinoxalin-6-ylmethyl)-4-(3-(trifluoromethyl)piperazin-1-yl)pyridin-3-amine]	8.2
c1cc(N2CC3CC2CN3)c(NCc2ccc3nccnc3c2)cn1 (centres unmarked) [compound 030, 4-(2,5-diazabicyclo[2.2.1]heptan-2-yl)-N-(quinoxalin-6-ylmethyl)pyridin-3-amine]	82.9
c1cc(NCc2ccc3nccnc3c2)c(N2CCNCC2)cn1 [compound 040, 3-(piperazin-1-yl)-N-(quinoxalin-6-ylmethyl)pyridin-4-amine]	69
c1cc(N2C3CNCC2C3)c(NCc2ccc3nccnc3c2)cn1 [compound 031, 4-(3,6-diazabicyclo[3.1.1]heptan-6-yl)-N-(quinoxalin-6-ylmethyl)pyridin-3-amine]	17.9
